Tested on: Rabbit antiserum (raised against AdaM-BSA)
Experiment: Assay 1: end point competitive ELISA with rabbit antibody and antibody specificity (goat anti-rabbit strips, AdaM-HRP conjugate)
Type: binding
Details: rabbit antiserum 1:12,500, duplicate
Experimental: New Zealand White rabbits were used for polyclonal antibody production. Immunization (1 ml total volume) was carried out with subcutaneous injections at multiple sites. Initial injection utilizes 1:1 mixture of complete Freund Adjuvant and AdaM-BSA conjugate solution in PBS upon emulsification. Subsequent injections use incomplete Freund adjuvant. The immunization was on 21 days cycle schedule, the animals were bleed from the ear artery (rabbit sedated) between 7 to 14 days after injection, normally on the 10th day. The blood was then processed to serum via centrifugation to remove red blood cells and clots. Immune response was detected after three booster injections. See FIG. 1 for a typical positive antibody response (indicated by antibody titer determination) wherein NA005 and 006 are animal designation numbers, 0 represents pre-bleed, 1 represents the first bleed after 4 immunizations.
4-1. Assay 1 Assay (End Point) with Rabbit Antibody and Antibody Specificity
• 1. Goat anti-rabbit coated microtiter well strips. • 2. —Rabbit antiserum diluted in incubation buffer (IB: 10 mM phosphate, 150 mM NaCl, 0.2% BSA, 0.1% Tween 20, 0.1% Proclin, pH 7.4) • 3. An IB+Tris (100 mM) buffer, pH 8.5 • 4. Samples: • (a) SAMe toluenesulfonate (tosylate) disulfate at concentration from […] to 1.4×10^−5 M in IB containing BSA 0.5%, and use 0.5% BSA-IB as zero sample. • (b) SAH at concentration from zero and 1.4×10^−8 to 1.4×10^−4 M. • (c) Adenosine at concentration from zero and 5.6×10^−9 M. to 5.6×10^−5 M • (d) Guanosine at concentration from zero and 3.0×10^−9 M to 3.0×10^−5 M • 5. AdaM-HRP conjugate (diluted to HRP concentration @30 μg/mL) in IB. • 6. —HRP substrate: one reagent substrate solution NeA-blue Tetramethylbenzidine Substrate, Clinical Science Products, Inc., Mansfield, Mass. • 7. 1N phosphoric acid Procedure: • 1. —The rabbit antiserum was diluted 1:12,500 in IB and pre-incubated (60 μl/well) in goat-antirabbit coated strips for at least one hour. • 2. Excess antibody was then decanted, washed, and blot dry. • 3. To each well was then added 10 μl of the pH 8.5 IB+Tris buffer followed by 25 μl of samples. The mixture was incubated on a orbital shaker for 25 min. All samples were tested in duplicate except the zero sample, in 6 wells. • 4. Twenty five microliter (25 μl) of AdaM-HRP conjugate solution was then added and incubated for additional 25 min with shaking. • 5. The assay mixture was then decanted, washed, and blot dry. • 6. To each well was added 60 μl/well of HRP substrate and incubate for 15 min. • 7. Stop the substrate development with 120 μl/well of 1N phosphoric acid. • 8. Read OD450 on a Perkin Elmer Lambda (microtiter plate) Reader. Results: (See Table 1 below)

Compound `Nc1ncnc2c1ncn2[C@@H]1O[C@H](CO)[C@@H](O)[C@H]1O` [Adenosine] has an OD450 (sample concentration 5.6E−5 (M)) of 0.256, an OD450 (sample concentration 5.6E−6 (M)) of 0.300 and an OD450 (sample concentration 5.6E−7 (M)) of 0.305. The OD450 (sample concentration 5.6E−8 (M)) was 0.339 and the OD450 (sample concentration 5.6E−9 (M)) was 0.342.

Compound `Nc1nc2c(ncn2[C@@H]2O[C@H](CO)[C@@H](O)[C@H]2O)c(=O)[nH]1` [Guanosine] has an OD450 (sample concentration 3.0E−5 (M)) of 0.371, an OD450 (sample concentration 3.0E−6 (M)) of 0.383 and an OD450 (sample concentration 3.0E−7 (M)) of 0.374. For the same compound, the OD450 (sample concentration 3.0E−8 (M)) was 0.324 and the OD450 (sample concentration 3.0E−9 (M)) was 0.350.

For `Nc1ncnc2c1ncn2[C@@H]1O[C@H](CSCC[C@H](N)C(=O)O)[C@@H](O)[C@H]1O` [SAH, S-Adenosylhomocysteine], the OD450 (sample concentration 1.4E−4 (M)) was 0.209, the OD450 (sample concentration 1.4E−5 (M)) was 0.244 and the OD450 (sample concentration 1.4E−6 (M)) was 0.293. The OD450 (sample concentration 1.4E−7 (M)) was 0.323 and the OD450 (sample concentration 1.4E−8 (M)) was 0.337.

Reference: US8344115B2, “Immunoassay for specific determination of S-adenosylmethionine and analogs thereof in biological samples” (priority 2008, dated 2013)
